Some test systems named below: SNB-19 CNS; HCC-2998 colon; HL-60(TB) leukemia; HT29 colon; OVCAR-4 ovarian; KM12 colon; A498 renal; NCI-H522 lung; CCRF-CEM leukemia; SK-MEL-28 melanoma; PC-3 prostate; MDA-N; DU-145 prostate; SR leukemia; M14 melanoma; BT-549 breast.
Common to all, as to experiment: DTP human tumour cell line panel, 48 h

Values joined by “and” are separate entries in the source; they are usually repeats but may differ in a detail not shown here. Equal values may be shown once.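 Protocol summary: plate cells (96-well), add compound at 5 concentrations, incubate 48 h, interpolate endpoints linearly. At the GI50, growth is halved. TGI marks complete inhibition of growth.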 Where a SMILES comes first, the peptide text is derived from it.

Consider `CC1NC(=O)CNC(=O)CNC(=O)C(Cc2ccc(O)cc2)NC(=O)C(C(C)C)NC(=O)C(C)NC1=O` (stereo not given) (cyclo(GGAAVY); configuration not given here), for which the TGI with SNB-19 CNS is more than 100 µM; in the assay with HCC-2998 colon, more than 100 µM; in the assay on HL-60(TB) leukemia, more than 100 µM; in the assay with HT29 colon it was more than 100 µM; with OVCAR-4 ovarian, > 100 µM and 22.7 µM; with KM12 colon it was more than 100 µM. Besides, the TGI in the assay with A498 renal, in the assay with NCI-H522 lung, in the assay on CCRF-CEM leukemia and with SK-MEL-28 melanoma was more than 100 µM in each case. Moreover, the GI50 in the assay with OVCAR-4 ovarian is more than 100 µM; in the assay on A498 renal, 75.6 µM; in the assay with NCI-H522 lung, more than 100 µM.

As to `COc1ccc(/C=C2\C=Cc3ccccc32)cc1OC`, the TGI in the assay on PC-3 prostate was more than 100 µM; in the assay with SNB-19 CNS, more than 100 µM; in the assay on HCC-2998 colon, more than 100 µM; in the assay with HL-60(TB) leukemia, 69.5 µM; in the assay on MDA-N it was more than 100 µM; with HT29 colon, more than 100 µM. The TGI in the assay with OVCAR-4 ovarian, with KM12 colon, in the assay with A498 renal, with DU-145 prostate, with SR leukemia and in the assay with NCI-H522 lung was more than 100 µM each time. Also, the TGI in the assay with M14 melanoma, with CCRF-CEM leukemia and in the assay with SK-MEL-28 melanoma was more than 100 µM each time.

On to `NC(N)=NCCCC(N=c1c2ccccc2n(O)c2ccccc12)C(=O)O` (stereo not given), for which the TGI with SNB-19 CNS was more than 100 µM; with HCC-2998 colon it was more than 100 µM; in the assay with HL-60(TB) leukemia it was 58.5 µM; in the assay on OVCAR-4 ovarian it was more than 100 µM; in the assay on KM12 colon it was more than 100 µM; in the assay on A498 renal, more than 100 µM. The TGI was more than 100 µM in the assay on NCI-H522 lung, more than 100 µM in the assay on M14 melanoma, more than 100 µM in the assay on CCRF-CEM leukemia and 90.1 µM in the assay with SK-MEL-28 melanoma.

As to `O=C(Cn1c(=O)ccn(C2OC(CO)C(O)C2F)c1=O)c1ccc(F)cc1` (stereo not given), the TGI in the assay on PC-3 prostate, in the assay on SNB-19 CNS, in the assay with HL-60(TB) leukemia, in the assay on MDA-N, in the assay with HT29 colon and in the assay on KM12 colon was more than 100 µM throughout. In addition, the TGI in the assay with DU-145 prostate, in the assay on NCI-H522 lung, in the assay on CCRF-CEM leukemia and in the assay on SK-MEL-28 melanoma was more than 100 µM in each case.

As to `CCCCCCCCCOC(=O)c1cnc(Cl)cn1`, the TGI in the assay on PC-3 prostate is 24 µM; in the assay on SNB-19 CNS, 47.5 µM; in the assay on BT-549 breast it was 63.3 µM; in the assay with HT29 colon, 86.1 µM; with OVCAR-4 ovarian, 71.1 µM; in the assay with KM12 colon, 33.4 µM. Moreover, the TGI in the assay on DU-145 prostate was 33.8 µM; with SR leukemia, more than 100 µM; in the assay on NCI-H522 lung, 36.1 µM; in the assay on M14 melanoma it was 36.3 µM; with CCRF-CEM leukemia it was more than 100 µM; in the assay on SK-MEL-28 melanoma it was 52.7 µM.

Regarding `O=C(NN=C1CCN(Cc2ccccc2)CC1)C(O)(c1ccccc1)c1ccccc1`, the TGI with SNB-19 CNS, in the assay on HCC-2998 colon, in the assay with HL-60(TB) leukemia, with HT29 colon, in the assay with OVCAR-4 ovarian and with KM12 colon was more than 100 µM throughout. Also, the TGI in the assay on DU-145 prostate, in the assay with SR leukemia, with M14 melanoma, in the assay on CCRF-CEM leukemia and in the assay with SK-MEL-28 melanoma was more than 100 µM in each case.

For the compound `CC1=C2C(O)C(C(C)C(=O)NCC(C)C)CCC2(C)C=CC1=O` (stereo not given), the TGI in the assay with SNB-19 CNS, in the assay with HCC-2998 colon, with HL-60(TB) leukemia, with HT29 colon, in the assay with OVCAR-4 ovarian and with KM12 colon was more than 100 µM throughout. Moreover, the total growth inhibition concentration (TGI) in the assay on A498 renal, in the assay with NCI-H522 lung, with CCRF-CEM leukemia and in the assay with SK-MEL-28 melanoma was more than 100 µM throughout.

Turning to `C=C1C(=O)O[C@@H]2[C@H]3O[C@]3(C)CCC=C(C)CC[C@@H]12`, the TGI in the assay on SNB-19 CNS amounted to 163 µM; in the assay on HCC-2998 colon, 56.1 µM; with HL-60(TB) leukemia, 23.4 µM; in the assay on HT29 colon it was 68.8 µM; in the assay on OVCAR-4 ovarian it was 45.3 µM; in the assay on KM12 colon, 53.6 µM. The TGI is 13.3 µM in the assay on A498 renal, 17.1 µM in the assay on NCI-H522 lung, 59.9 µM in the assay with CCRF-CEM leukemia and 44.3 µM in the assay with SK-MEL-28 melanoma.

As to `COc1ccc2c(c1)C(N)CC2=O` (stereo not given), the TGI in the assay on PC-3 prostate is 34.8 µM; with SNB-19 CNS, more than 100 µM; with HCC-2998 colon, more than 100 µM; in the assay with BT-549 breast, more than 100 µM; in the assay with HT29 colon, more than 100 µM; in the assay on OVCAR-4 ovarian it was more than 100 µM. For the same compound, the TGI in the assay on KM12 colon, in the assay on A498 renal, with DU-145 prostate, in the assay on NCI-H522 lung, in the assay with M14 melanoma and in the assay on CCRF-CEM leukemia was more than 100 µM throughout. In the assay with SK-MEL-28 melanoma, this compound returned a TGI of more than 100 µM.

For the compound `Cn1cc(C(=O)c2nccc3c2cnc2ccccc23)ccc1=O`, the TGI with PC-3 prostate, in the assay with SNB-19 CNS, in the assay with HCC-2998 colon, in the assay on HL-60(TB) leukemia, in the assay with MDA-N and with HT29 colon was more than 100 µM each time. In addition, the TGI with OVCAR-4 ovarian was more than 100 µM; in the assay on KM12 colon, more than 100 µM; with A498 renal, more than 100 µM; in the assay on DU-145 prostate, more than 100 µM; in the assay with SR leukemia it was 49.7 µM; in the assay with M14 melanoma it was more than 100 µM. In addition, the TGI in the assay with CCRF-CEM leukemia and in the assay on SK-MEL-28 melanoma was more than 100 µM each time.

In the case of `CC1C(c2ccc(F)cc2)c2cc3c(cc2OC1N1CCCC1)OCO3` (stereo not given), the TGI with PC-3 prostate, with SNB-19 CNS, with HCC-2998 colon, in the assay on MDA-N, in the assay with HT29 colon and in the assay on KM12 colon was more than 100 µM in each case. Moreover, the TGI in the assay with DU-145 prostate, with SR leukemia, in the assay with NCI-H522 lung, in the assay with M14 melanoma, in the assay with CCRF-CEM leukemia and in the assay on SK-MEL-28 melanoma was more than 100 µM each time.

By TGI is commonly meant the concentration at which net growth stops. A lower TGI goes with greater sensitivity of the cells. In general, GI50 refers to the concentration that inhibits growth by half.
